Data: patent US20110070232A1, “Combination Therapy with an Antitumor Alkaloid” (Pharma Mar, S.A., priority 2008, published 2011)
Where two headings read alike, the source gives them in different places.

Legend:
MRI-H-254 tumors = type: in vivo, mice
Description: Female athymic nude mice (Harlan Sprague Dawley, Madison, Wis.) were utilized for all experiments. Animals were housed in ventilated rack caging with food and water ad libitum. The mice were acclimated for at least 5 days prior to tumor implantation with tumor fragments.
Treatments were initiated on DPI 16.
(§1) Tumor size measurements were recorded twice weekly from the treatment initiation until the termination of the study.
(§2) Mean, standard deviation and standard error of the mean were determined for tumor volume for all animal groups at all assessments. Student's t test was performed on tumor volumes at each measurement day, including at the end of the study, to determine whether there were any statistically significant differences between combination treatment groups and single monotherapy treatment groups.

Hs746T tumors = type: in vivo, mice; conditions: for % Inhibition: mg/kg/day: PM00104 0.90 IV, 5-FU 50 at DPI 15 and 100 at DPI 22 & 29 IP
From the text: Female athymic nude mice (Harlan Sprague Dawley, Madison, Wis.) were utilized for all experiments. Animals were housed in ventilated rack caging with food and water ad libitum. The mice were acclimated for at least 5 days prior to tumor implantation with a tumor cell suspension.
The tumor model used in these studies was Hs746T cell line, which was obtained from the ATCC (Manassas, Va.).
Treatments were initiated on DPI 15.
5-FU was provided as a solution which was further diluted with water for injection.
as §1, §2

[1] = tested on: HCT-116 (colon cancer) cell line; assay: IC50 determination, MIT (tetrazolium) assay, 72 h (Example 18); type: cell-based, human; conditions: Homo sapiens; HCT-116, 72 hours of drug exposure
Description: HCT-116 cells were grown in McCoy's supplemented with 10% Fetal Bovine Serum (FBS), 1% penicillin/streptomycin and 2 mM L-glutamine.
Before plating, cell cultures were trypsinized and cell number estimated using an automated flow cytometer.
Cells were harvested and seeded in 96 well microtiter plates at the appropriate cell density (5,000-10,000 cells) in 150 μL of media and incubated for 24 hours to allow the cells to attach before drug addition.
After the incubation period (72 hours), 50 μL of MIT solution was added to each microtiter well and incubated for further 8 hours at 37° C. The culture medium was then removed and 50 μl, of DMSO were added to dissolve the MIT crystals. Optical densities were read at 540 nm on spectrophotometer microplate reader.
IC50 values were calculated from an average of two to four assays for each of the test agents.

[2] = day 16, PM00104 0.90, cisplatin 3, irinotecan 10, paclitaxel 12.5 mg/kg/day
[3] = day 16, PM00104 0.90, cisplatin 5, irinotecan 18, paclitaxel 25 mg/kg/day
[4] = day 20, PM00104 0.90, cisplatin 3, irinotecan 10, paclitaxel 12.5 mg/kg/day
[5] = day 20, PM00104 0.90, cisplatin 5, irinotecan 18, paclitaxel 25 mg/kg/day
[6] = day 23, PM00104 0.90, cisplatin 3, irinotecan 10, paclitaxel 12.5 mg/kg/day
[7] = day 23, PM00104 0.90, cisplatin 5, irinotecan 18, paclitaxel 25 mg/kg/day
[8] = day 26, PM00104 0.90, cisplatin 3, irinotecan 10, paclitaxel 12.5 mg/kg/day
[9] = day 26, PM00104 0.90, cisplatin 5, irinotecan 18, paclitaxel 25 mg/kg/day
[10] = day 29, PM00104 0.90, cisplatin 3, irinotecan 10, paclitaxel 12.5 mg/kg/day
[11] = day 29, PM00104 0.90, cisplatin 5, irinotecan 18, paclitaxel 25 mg/kg/day
[12] = day 33, PM00104 0.90, cisplatin 3, irinotecan 10, paclitaxel 12.5 mg/kg/day
[13] = day 33, PM00104 0.90, cisplatin 5, irinotecan 18, paclitaxel 25 mg/kg/day
[14] = day 40, PM00104 0.90, cisplatin 3, irinotecan 10, paclitaxel 12.5 mg/kg/day
[15] = day 40, PM00104 0.90, cisplatin 5, irinotecan 18, paclitaxel 25 mg/kg/day
[16] = day 48, PM00104 0.90, cisplatin 3, irinotecan 10, paclitaxel 12.5 mg/kg/day
[17] = day 48, PM00104 0.90, cisplatin 5, irinotecan 18, paclitaxel 25 mg/kg/day
[18] = PM00104 0.9, 5-FU 50 (DPI 15) then 100 (DPI 22 & 29), irinotecan 20, doxorubicin 6 mg/kg/day

SMILES: N.N.[Cl][Pt][Cl] [Cisplatin, cisplatin]
- % Inhibition (MRI-H-254 tumors; [2]): 1.6%
- % T/C (MRI-H-254 tumors; [2]): 98.4%
- % Inhibition (MRI-H-254 tumors; [3]): −0.5%
- % T/C (MRI-H-254 tumors; [3]): 100.5%
- % Inhibition (MRI-H-254 tumors; [4]): 6.6%
- % T/C (MRI-H-254 tumors; [4]): 93.4%
- % Inhibition (MRI-H-254 tumors; [5]): 2.2%
- % T/C (MRI-H-254 tumors; [5]): 97.8%
- % Inhibition (MRI-H-254 tumors; [6]): 17.0%
- % T/C (MRI-H-254 tumors; [6]): 83.0%
- % Inhibition (MRI-H-254 tumors; [7]): 24.7%
- % T/C (MRI-H-254 tumors; [7]): 75.3%
- % Inhibition (MRI-H-254 tumors; [8]): 18.5%
- % T/C (MRI-H-254 tumors; [8]): 81.5%
- % Inhibition (MRI-H-254 tumors; [9]): 40.1%
- % T/C (MRI-H-254 tumors; [9]): 59.9%
- % Inhibition (MRI-H-254 tumors; [10]): 27.0%
- % T/C (MRI-H-254 tumors; [10]): 73.0%
- % Inhibition (MRI-H-254 tumors; [11]): 45.7%
- % T/C (MRI-H-254 tumors; [11]): 54.3%
- % Inhibition (MRI-H-254 tumors; [12]): 31.4%
- % T/C (MRI-H-254 tumors; [12]): 68.6%
- % Inhibition (MRI-H-254 tumors; [13]): 60.5%
- % T/C (MRI-H-254 tumors; [13]): 39.5%
- % Inhibition (MRI-H-254 tumors; [14]): 44.7%
- % T/C (MRI-H-254 tumors; [14]): 55.3%
- % Inhibition (MRI-H-254 tumors; [15]): 76.2%
- % T/C (MRI-H-254 tumors; [15]): 23.8%
- % Inhibition (MRI-H-254 tumors; [16]): 50.8%
- % T/C (MRI-H-254 tumors; [16]): 49.2%
- % Inhibition (MRI-H-254 tumors; [17]): 82.9%
- % T/C (MRI-H-254 tumors; [17]): 17.1%

SMILES: O=c1[nH]cc(F)c(=O)[nH]1 [5-FU, 5-fluorouracil]
- % T/C on day 15 (Hs746T tumors; [18]): 102.3%
- % T/C on day 19 (Hs746T tumors; [18]): 96.4%
- % T/C on day 22 (Hs746T tumors; [18]): 88.0%
- % T/C on day 26 (Hs746T tumors; [18]): 93.4%
- % T/C on day 29 (Hs746T tumors; [18]): 94.5%
- % T/C on day 33 (Hs746T tumors; [18]): 95.3%
- % Inhibition (Hs746T tumors; day 15): −2.3%
- % Inhibition (Hs746T tumors; day 19): 3.6%
- % Inhibition (Hs746T tumors; day 22): 12.0%
- % Inhibition (Hs746T tumors; day 26): 6.6%
- % Inhibition (Hs746T tumors; day 29): 5.5%
- % Inhibition (Hs746T tumors; day 33): 4.7%
- IC50 [1]: 6 µM
